Results on three compounds are retold here after patent US20120263719A1, “COMPOSITIONS AND METHODS FOR TREATING ASPERGILLOSIS” (priority 2009, published 2012).

For test [1], the system named is AF-infected mice. Put plainly: Animal survival experiment in AF-infected immunosuppressed mice (36 days). It counts as in vivo. Conditions: group 8: 1 mg/kg i.t.
Test [2] relates to Aspergillus fumigatus. Briefly: In vitro antifungal activity (NCCLS M27-A; MIC/MFC, hyphal growth). It counts as cell-based. Conditions: for MFC: Aspergillus fumigatus. The method, then: The antifungal activity of mAb (MPS5.44)-alliinase conjugates was determined according to the conditions of National Committee for Clinical Laboratory Standards (NCCLS) document M27-A. Resting conidia (3×10^4 conidia/well) were seeded in 96-well plates and incubated for 4 hours at 37° C. with RPMI/MOPS (100 μl). mAb-alliinase conjugate was applied in serial 2-fold dilutions, in triplicates and incubated for 30 min at 37° C., then washed four times followed by the addition of alliin (0.5 mg/ml). Hyphal growth was monitored by microscopic observation as well as by optical density (OD595), or by fluorescence of the strain CBS/DsRed (excitation at 540 nm, emission at 595 nm). The MIC of the conjugate was determined after 72 hours. The wells in which no fungal germination was detected, were scraped and plated on Sabouraud plates and the number of colonies was counted after 72 hours to determine the MFC. As a control, the antifungal activity was also determined by incubating AF as above with non-conjugated alliinase or with conjugates consisting of the non-specific mAb and alliinase.

In brackets after ≈: the same amount, converted by molar mass. Like-named read-outs stand apart in the source and are kept apart here.

`C[C@@H]1[C@H](O)[C@@H](C)/C=C/C=C/C=C/C=C/C=C/C=C/C=C/[C@H](O[C@@H]2O[C@H](C)[C@@H](O)[C@H](N)[C@@H]2O)C[C@@H]2O[C@](O)(C[C@@H](O)C[C@@H](O)[C@H](O)CC[C@@H](O)C[C@@H](O)CC(=O)O[C@H]1C)C[C@H](O)[C@H]2C(=O)O` [Amphotericin B]: the MST in test [1] (n=10) worked out at 18 days. In test [1] (n=10, 36 d), the “survival at the end of the experiment” value amounted to 30%.

Consider `C=CCS[S+]([O-])CC=C` (stereo not drawn) [allicin, diallyl-dithiosulfinate], for which the MFC – broadly, the lowest tested concentration that kills the fungus rather than only halting it – in test [2] (read-out: MFC, resting conidia) was 15 µg/mL (≈ 92.4 µM); in test [2] (read-out: MFC, swollen conidia), 7.5 µg/mL (≈ 46.2 µM); in test [2] (pure allicin, data not shown, read-out: MFC, hyphae) it was 30 µg/mL (≈ 185 µM).

Consider (+)S-Allyl-cysteine sulfoxide [alliin], for which the “growth of Aspergillus cells treated with one component only” value in test [2] (alliin without conjugate, or conjugate without alliin) was “not inhibited in their growth”.
